Reference: patent US9181259B2 (LEO PHARMA A/S, priority 2012, dated 2015)
“Also recorded” adds a separate entry of the source.

Assays:
NK-1 receptor = biological target: T1, NK-1 receptor (Meriones unguiculatus, UniProt Q5DUB1); test: Gerbil scratching model (scratching induced by NK-1 agonist GR73632); assay type: in vivo, Mongolian gerbil; details: for attenuation of scratching induced in gerbils by the NK-1 selective agonist GR73632: topical application 1% w/v (20 μL) 20 min before i.d. GR73632 100 nmol/100 μL, male Mongolian gerbils
T1 construct: animals (male Mongolian gerbils) were shaved on the rostral part of the back; from tissue; host or cells: living male Mongolian gerbils (skin, topical application; in vivo)
Description: The gerbil was selected for this study as this species shares higher homology to the human in terms of NK-1 receptor pharmacology compared to other laboratory rodents.
Each test compound was tested on 11 or 12 animals. On the day of the test, the gerbils (four animals simultaneously) were put into a Plexiglas cage (42×42×35 cm) composed of four cells (20.5×20.5×35 cm) for 10 minutes of habituation. After this period, the test compound (1% w/v in acetone and transcutol 9:1) was topically applied on the shaven area in a volume of 20 μL. Topical application was performed using a Hamilton syringe (25 μL) and a square stencil of impermeable paper (1.5×1.5 cm) to allow application over a defined skin area (2.25 cm2). […] I.d. injection was made with a Hamilton syringe (250 μL) connected to a 27 gauge needle. Immediately after injection, animals were placed back into the same cell of the Plexiglas cage they were previously habituated in and their behaviour was recorded on video remotely for 30 minutes. The experimenter remained out of the observation room in order to minimize disturbance to the animals. The video was subsequently analysed to assess scratching behaviour. Scratching of the injection site by the hind paws was counted while scratching of other sites such as ears and snout were disregarded. Scratching episodes were measured over 10-minutes time intervals, for a total of 30 minutes.
Results were expressed as mean value±SEM. Statistical analysis was performed by a one-way ANOVA followed by LSD post hoc test with the exception of time-course analysis for a repeated-measure ANOVA followed by LSD post hoc test was performed.

NK1 receptor = biological target: T2, NK1 receptor (Homo sapiens, UniProt P25103); test: NK1 receptor mediated intracellular [Ca2+] mobilization in U251 MG cells using FLIPR; assay type: cell-based; details: antagonist potency against Substance P (EC80), normalized to 100 nM Aprepitant, read-out: U251MG (FLIPR pIC50) (converted)
T2 construct: Measurement of NK1 Receptor Mediated Intracellular [Ca^2+]; Mobilization in U251 MG Cells Using FLIPR; endogenous in cells; host or cells: U251 MG cells
In short: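 Fluo-4-loaded U251 MG cells were preincubated with compound (0.5% DMSO final), with any agonist effect read for 5 min, then 10 min more at 37 °C before Substance P at EC80. Peak FLIPR fluorescence change was read, and IC50 came from a four-parameter fit as the midpoint between fitted top and bottom.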

[1] = Hepatic intrinsic clearance following incubation in human liver microsomes; assay type: in vitro ADME; details: NADPH regenerating system, 0-30 min, 37 °C
In short: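 Compounds (from 50 µM working solution) are incubated with human liver microsomes diluted to 0.55 mg/mL in phosphate pH 7.4, with NADPH regeneration at 37 °C and sampling at 0–30 min. LC-MS/MS parent depletion gives kobs, scaled to mL/min/g liver. Eh uses 25.7 g liver/kg and 20.7 mL/min/kg blood flow.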

T2 sequence (P25103 whole entry): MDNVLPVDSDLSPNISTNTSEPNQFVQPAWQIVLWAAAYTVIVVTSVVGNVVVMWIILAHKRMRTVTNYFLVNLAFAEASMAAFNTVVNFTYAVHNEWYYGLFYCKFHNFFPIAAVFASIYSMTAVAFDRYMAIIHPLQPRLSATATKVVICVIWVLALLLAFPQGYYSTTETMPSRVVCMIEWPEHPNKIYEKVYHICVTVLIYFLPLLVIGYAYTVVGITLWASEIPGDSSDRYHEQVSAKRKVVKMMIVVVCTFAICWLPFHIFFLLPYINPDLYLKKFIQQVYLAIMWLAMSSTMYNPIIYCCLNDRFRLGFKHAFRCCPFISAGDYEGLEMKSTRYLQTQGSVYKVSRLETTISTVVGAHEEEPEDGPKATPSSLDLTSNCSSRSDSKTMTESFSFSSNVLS
T1 sequence (Q5DUB1 whole entry): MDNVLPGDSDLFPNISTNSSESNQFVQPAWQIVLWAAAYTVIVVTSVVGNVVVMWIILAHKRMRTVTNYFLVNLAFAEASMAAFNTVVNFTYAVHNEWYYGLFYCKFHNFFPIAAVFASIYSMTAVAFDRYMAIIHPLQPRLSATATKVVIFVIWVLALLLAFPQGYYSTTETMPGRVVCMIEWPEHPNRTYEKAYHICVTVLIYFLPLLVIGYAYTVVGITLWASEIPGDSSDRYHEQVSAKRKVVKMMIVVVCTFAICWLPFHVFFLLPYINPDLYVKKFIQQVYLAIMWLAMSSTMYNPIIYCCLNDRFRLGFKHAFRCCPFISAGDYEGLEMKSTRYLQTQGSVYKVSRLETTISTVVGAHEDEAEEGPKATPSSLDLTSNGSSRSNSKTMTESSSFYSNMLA

Compound	induction of scratching (number of scratches) (NK-1 receptor; intradermal injection 100 nmol/100 μL, 30 min time course, repeated-measure ANOVA, gerbil)	IC50 (NK1 receptor)	Human in vitro Clint (mL/min/g liver) [1]	attenuation of scratching induced in gerbils by the NK-1 selective agonist GR73632 (NK-1 receptor)
5-Aminopentanoyl-L-phenylalanyl-L-phenylalanyl-L-prolyl-L-(N-methyl)leucyl-L-methioninamide [GR73632, reference compound]	induced an increase in the number of scratches; also recorded: induced an increase of scratching			
Cc1ccccc1[C@H]1[C@@H]2CCC(=O)N2CCN1C(=O)N(C)[C@H](C)c1cc(C(F)(F)F)cc(C(F)(F)F)c1 (single isomer, unassigned) [Compound 9]		0.0347 nM	4.5 mL/min/g liver	able to attenuate the scratching
Cc1ccccc1C1C2CC(CN3CCOCC3)C(=O)N2CCN1C(=O)N(C)Cc1cc(C(F)(F)F)cc(C(F)(F)F)c1 (single isomer, unassigned) [Compound 38]		0.195 nM	3.3 mL/min/g liver	not able to attenuate the scratching
Cc1ccccc1C1C2CC(CCO)(CCO)C(=O)N2CCN1C(=O)N(C)Cc1cc(C(F)(F)F)cc(C(F)(F)F)c1 (single isomer, unassigned) [Compound 44, N-{[3,5-bis(trifluoromethyl)phenyl]methyl}-7,7-bis(2-hydroxyethyl)-N-methyl-1-(2-methylphenyl)-6-oxo-octahydropyrrolo[1,2-a]piperazine-2-carboxamide]		0.0692 nM	2.6 mL/min/g liver	able to attenuate the scratching
Cc1ccccc1C1C2CC(CCO)(CCO)C(=O)N2CCN1C(=O)N(C)[C@H](C)c1cc(C(F)(F)F)cc(C(F)(F)F)c1 (single isomer, unassigned) [Compound 54]		0.12 nM	9.5 mL/min/g liver	able to attenuate the scratching
Cc1ccccc1C1C2CC(CO)C(=O)N2CCN1C(=O)N(C)[C@H](C)c1cc(C(F)(F)F)cc(C(F)(F)F)c1 (single isomer, unassigned) [Compound 55]		0.151 nM	2.4 mL/min/g liver	not able to attenuate the scratching
Cc1ccccc1C1C2CC(CCO)(CCO)CN2CCN1C(=O)N(C)[C@H](C)c1cc(C(F)(F)F)cc(C(F)(F)F)c1 (single isomer, unassigned) [Compound 60]		0.339 nM	6.1 mL/min/g liver	able to attenuate the scratching
CCc1cc([C@@H](C)N(C)C(=O)N2CCN3C(=O)C(CCO)(CCO)C[C@H]3[C@@H]2c2ccccc2C)cc(C(F)(F)F)c1 [Compound 110, (1S,8aS)-N-((R)-1-(3-ethyl-5-(trifluoromethyl)phenyl)ethyl)-7,7-bis(2-hydroxyethyl)-N-methyl-6-oxo-1-o-tolylhexahydropyrrolo[1,2-a]pyrazine-2(1H)-carboxamide]		0.0631 nM	13 mL/min/g liver	
Cc1cc([C@@H](CO)N(C)C(=O)N2CCN3C(=O)C(CCO)(CCO)C[C@H]3[C@@H]2c2ccccc2C)cc(C(F)(F)F)c1 [Compound 111, (1S,8aS)-N-((S)-2-hydroxy-1-(3-methyl-5-(trifluoromethyl)phenyl)ethyl)-7,7-bis(2-hydroxyethyl)-N-methyl-6-oxo-1-o-tolylhexahydropyrrolo[1,2-a]pyrazine-2(1H)-carboxamide]		0.0617 nM	3.7 mL/min/g liver	
Cc1ccccc1[C@H]1[C@@H]2CCC(=O)N2CCN1C(=O)N(C)[C@H](C)c1cc(C(C)C)cc(C(F)(F)F)c1 [Compound 112, (1S,8aS)-N-((R)-1-(3-isopropyl-5-(trifluoromethyl)phenyl)ethyl)-N-methyl-6-oxo-1-o-tolylhexahydropyrrolo[1,2-a]pyrazine-2(1H)-carboxamide]		0.0316 nM	51 mL/min/g liver	
Cc1ccccc1[C@H]1[C@@H]2CC(CCO)(CCO)C(=O)N2CCN1C(=O)N(C)[C@H](C)c1cc(C(C)C)cc(C(F)(F)F)c1 [Compound 113, (1S,8aS)-7,7-bis(2-hydroxyethyl)-N-((R)-1-(3-isopropyl-5-(trifluoromethyl)phenyl)ethyl)-N-methyl-6-oxo-1-o-tolylhexahydropyrrolo[1,2-a]pyrazine-2(1H)-carboxamide]		0.0316 nM	56 mL/min/g liver	
